Laboratory results as given in US6043045A, “Screening methods for the identification of novel antibiotics” (The Scripps Research Institute, priority 1998, dated 2000).
Entries after “also recorded” stand apart in the source; their conditions may differ.

What was measured:
KinA~P = target: T1, KinA~P (Bacillus subtilis, UniProt P16497); experiment: Dephosphorylation of preformed KinA~P; assay type: biochemical; conditions: oleic acid 2.5×10^-4M, no SpoOF
T1 construct: made in house
Experimental: Next, the ability of oleic acid to enhance the dephosphorylation of preformed KinA~P was investigated. Autophosphorylation of in the presence of [γ^32 P]ATP was allowed to proceed for 60 minutes in the absence of SpoOF. At the end of this incubation, the reaction was divided into two aliquots, one receiving oleic acid to a final concentration of 2.5×10^-4M. Samples from each were withdrawn at timed intervals, fractionated on polyacrylamide gels, the KinA bands excised and the incorporated radioactivity determined.

KinA [1] = target: T2, KinA (Bacillus subtilis, UniProt P16497); experiment: biochemical; assay type: biochemical
T2 construct: made in house
T2 sequence (P16497 1-606): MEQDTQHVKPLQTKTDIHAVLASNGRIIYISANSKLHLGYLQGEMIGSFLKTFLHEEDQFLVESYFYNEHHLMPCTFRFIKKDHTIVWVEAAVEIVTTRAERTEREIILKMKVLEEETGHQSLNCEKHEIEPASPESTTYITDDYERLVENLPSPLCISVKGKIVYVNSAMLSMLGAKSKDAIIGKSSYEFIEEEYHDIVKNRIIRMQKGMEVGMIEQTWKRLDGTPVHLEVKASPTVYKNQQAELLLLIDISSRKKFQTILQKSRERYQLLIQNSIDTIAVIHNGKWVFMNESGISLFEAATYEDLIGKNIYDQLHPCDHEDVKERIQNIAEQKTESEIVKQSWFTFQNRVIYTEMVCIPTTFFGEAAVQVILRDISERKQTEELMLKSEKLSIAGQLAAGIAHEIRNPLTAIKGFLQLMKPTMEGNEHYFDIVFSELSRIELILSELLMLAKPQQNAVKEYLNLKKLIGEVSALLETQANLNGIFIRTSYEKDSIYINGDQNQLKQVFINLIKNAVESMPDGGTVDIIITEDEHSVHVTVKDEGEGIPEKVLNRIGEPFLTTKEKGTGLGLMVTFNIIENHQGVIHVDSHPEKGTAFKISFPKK
Experimental: The reactions were performed in a 25 μl final volume containing 100 mM Tris pH 8.0, 100 mM KCl, 2 mM MgCl2, 0.5 mM dithiothreitol, 10% (v/v) glycerol, 0.1 % (w/v) gelatin, 4% (v/v) ethanol, 200 μM total ATP containing approximately 1.5 μCi [gamma-^32 P]ATP (New England Nuclear, 6000 Ci/mMol, 150 μCi/ml), 300 μM SpoOF protein and 0.04 μM KinA protein (Perego, et al., J. Bacteriol. 171: 6187-6196 (1989)) unless otherwise indicated. Fatty acids were added to varying final concentration from solutions made with 100% ethanol (the 4% ethanol concentration in the reaction mixture reflects these addition, or in the case of controls, the addition of ethanol alone). The reactions were initiated by addition of the ATP and incubated for thirty minutes at room temperature.
When higher KinA concentrations were used, the time of incubation was adjusted accordingly. The reactions were stopped by adding an equal volume of loading dye (0.25 M Tris pH 6.8, 20% (v/v) glycerol, 1% sodium dodecyl sulfate (w/v), 140 mM β-mercaptoethanol, 0.05% (w/v) bromophenol blue) and aliquots were loaded onto polyacrylamide gels (5% stacking, 15% separating, using the buffer system of Laemmi, Id., 1970).
The gels were run for approximately 16 hours at 10 mA constant current. The gels were covered with plastic wrap and subjected to autoradiography using Kodak XOmat RP1 film. Quantitation of activity was accomplished by cutting gels slices containing the appropriate phosphoprotein (usually SpoOF~P, see Section E below) and counting the Cerenkov radiation in a Beckman LF7500 scintillation counter (Beckman Instruments, Fullerton, Calif.). Equal-sized slices from blank areas of the gels were also counted and used to adjust for background. Percentage of activity was calculated using the value of the control reaction as 100%.
To quantify our initial assessment of inhibitory properties, the I0.5 values (at 4×10^-8 M KinA) were determined for each of the fatty acids. […] For example, the percent activity at an indicated oleic acid concentration is the ratio (×100) of the incorporation of ^32 P (from [γ^32 P]ATP) into the SpoOF protein relative to the incorporation in the control reaction containing no inhibitor. Typically, data are gathered from at least two different experiments. The I0.5 value is the concentration--e.g., the oleic acid concentration--corresponding to 50% activity as determined from the relevant graph.

KinA [2] = target: T2, KinA; experiment: Test whether fatty acids serve as substrate for KinA-catalyzed phosphorylation (heptane partition); assay type: biochemical; conditions: KinA 2 μM, no SpoOF, radioactivity in organic phase
Experimental: To determine if fatty acids served as a substrate for KinA-catalyzed phosphorylation, the following method was used. The above reaction conditions were employed except that no SpoOF was present; the KinA was at 2 μM and the reactions incubated for 5 minutes prior to the addition of fatty acids. After this initial incubation, to allow autophosphorylation to occur, 48 μl aliquots were added to tubes containing (a) two μl ethanol; (b) 2 μl of 2% oleic acid; and (c) 2 μl of 2% palmitic acid. The reactions were allowed to incubate 10 minutes after which time 0.5 ml H2 O and 0.5 ml heptane were added to each. After 10 minutes at room temperature, the phases were separated by centrifugation. The aqueous phases were washed with H2 O-saturated heptane and the heptane phases washed with heptane-saturated H2 O. The Cerenkov radiation in each phase and wash was determined.
Oleic acid was added to a reaction mixture containing KinA~[^32 P], and after a suitable incubation, the mixture was separated into organic and aqueous phases (as described above). Under the conditions used, fatty acid species would partition into the organic phase leaving the KinA~P and unincorporated [γ^32 P]ATP in the aqueous phase. The amount of radioactivity in the organic phase containing oleic acid was negligible and no different from the amount present in the control reactions (data not shown).

KinA [3] = target: T2, KinA; experiment: KinA autophosphorylation assay at higher KinA concentration and ATP competition series; assay type: biochemical
Experimental: (§1) The above-noted experiments were performed using a KinA concentration of […]. At this concentration, a band corresponding to KinA~P was not visible on the autoradiographs. Therefore, it could not be determined if the inhibition occurred at the KinA autophosphorylation step or at the phosphotransferase reaction between KinA~P and SpoOF. To address this question, assays were performed using a higher KinA concentration (1×10^-6 M). The prevention of stable autophosphorylation of KinA by oleic acid was confirmed. Data was gathered which verified the incorporation of ^32 P from [γ^32 P]ATP into the KinA protein in the presence of SpoOF and differing concentrations of oleic acid (not shown). The assay was performed as disclosed hereinabove, except that the KinA concentration was increased to 1×10^-6 M and the incubation time was shortened to three minutes.
(§2) To determine the nature of the fatty acid inhibition of autophosphorylation, three series of reactions were performed. In the first series, no oleic acid was present; the second contained 2.5×10^-5 M oleic acid; the third contained 7.0×10^-5 M oleic acid. […] Even at the lowest oleic acid concentration (2.5×10^-5 M) and highest ATP level (2×10^-3 M), the KinA was greater than 95% inhibited.

[4] = substrate: Nc1ncnc2c1ncn2[C@@H]1O[C@H](COP(=O)(O)OP(=O)(O)OP(=O)(O)O)[C@@H](O)[C@H]1O; experiment: Phosphorylation of His-SpoOF immobilized on Ni-resin by KinA (high throughput assay); assay type: biochemical, Bacillus subtilis; conditions: 1 μM KinA, 22° C., 20 min
Experimental: Phosphorylation of immobilized His-SpoOF was carried out using the MultiScreen 96-well filtration plate (0.65 μm, type DVPP) from Millipore (Bedford, Mass.). The removal of liquid from the wells of the filtration plate was done with the vacuum manifold from Millipore. The His-SpoOF resin (25%, v/v) was placed into individual wells of the filtration plate and washed twice with 200 μl buffer A. A total volume of 80 μl of buffer A containing the indicated amounts of KinA, ATP, and [γ-^32 P]ATP was added to the wells.
The plate was then incubated for the indicated period of time at 22° C. with gentle shaking. The reaction was terminated by removal of the reaction mixture from the wells followed by three washes of the resin with buffer A.
The resin was then washed three times with buffer A containing 30 mM imidazole with 5 min. incubation/shaking and another three times with buffer A only. […]
For analysis by scintillation counting, 80 μl of 0.2 N HCl was added to each of the wells and the plate was incubated at 55° C. with gentle shaking for 1 hour. […] To each of the wells of the MicroFluor plate, 150 μl of MicroScint-40 (Packard, Meriden, Conn.) was added and the radioactivity was counted using the TopCount from Packard. […]

[5] = substrate: Nc1ncnc2c1ncn2[C@@H]1O[C@H](COP(=O)(O)OP(=O)(O)OP(=O)(O)O)[C@@H](O)[C@H]1O; experiment: KinA autophosphorylation assay at higher KinA concentration and ATP competition series; assay type: biochemical, Bacillus subtilis; conditions: other: KinA
Experimental: as §1, §2

CCCCCCCC/C=C\CCCCCCCC(=O)O [cis-9-octadecanoic]
loss of 32P from preformed KinA~P versus reaction without oleic acid (KinA~P): no significant difference
inhibitory effect on KinA in vitro (in words) (KinA [1]): potent inhibitors
IC50 (KinA [1]; Table 4, I0.5 at 4×10^-8 M KinA, 32P incorporation into SpoOF, read-out: Fatty Acid Inhibitors of KinA Activity (category by I0.5)): < 70 µM
inhibition of KinA phosphorylation of SpoOF (in words) (KinA [1]; tested at 0.08% final concentration): essentially complete inhibition
substrate for KinA catalyzed phosphorylation (KinA [2]): did not serve as a substrate
inhibition of KinA (KinA [3]; 2.5×10^-5 M oleic acid, highest ATP level 2×10^-3 M): greater than 95%
competition of inhibition with ATP (KinA [3]; ATP 2×10^-5 to 2×10^-3 M, oleic acid 2.5×10^-5 and 7.0×10^-5 M): ATP is not competitive with oleic acid inhibition
phosphotransfer from KinA~P to SpoOF (KinA [3]; KinA 1×10^-6 M): can also inhibit the phosphotransfer from KinA~P to SpoOF
formation of KinA~P and SpoOF~P (KinA [3]; KinA 1×10^-6 M, 3 min, differing oleic acid concentrations): inhibits the formation of KinA~P and SpoOF~P in a concentration-dependent fashion; also recorded: acts to inhibit the autophosphorylation of KinA

B1: KinA (histidine protein kinase) (Bacillus subtilis subsp. subtilis str. 168) (protein)
chain: T2 sequence (P16497 1-606)
notes: made in house; host or cells: E. coli (printed "E. coil")
Km ([4]; other: SDS-PAGE analysis): 72 µM
Km ([4]; other: scintillation counting): 70 µM

B2: KinA (Bacillus subtilis subsp. subtilis str. 168) (protein)
chain: T2 sequence (P16497 1-606)
notes: made in house
Km [5]: 130 µM
